Where “and” joins values, the source holds several entries; their conditions need not be identical. Equal entries are not always repeated.
Columns and labels:
[1] = test system: dimethylnitrosamine (DMN)-induced liver injury male SD rats; assay: Liver function-improving activities by oral administration in the liver injury model (2), 4 weeks, serum ALT/AST and liver histology; type: in vivo, rat; conditions: for ALT values (average value) / AST values (average value): serum
Description: The compounds according to the present invention were orally administered to dimethylnitrosamine (DMN)-induced liver injury male SD rats for 4 weeks, so as to evaluate liver function-improving activities. Specifically, 7-week-old male SD rats (Orient Bio, Korea) were accommodated to the laboratory environment at room temperature for 7 days. General symptoms were observed and then only healthy animals were used for the experiment. The rats were divided into 3 groups (n=10 for each group), the normal control group, the group to which only DMN is administered, and the group to which both the compound of the present invention (the compound of Example 21) and DMN are administered. DMN was dissolved in purified water and then administered intraperitoneally at the dose of 10 mg/kg for 3 consecutive weeks (3 times per week, for 4 weeks). Blood samples were collected after the completion of the fourth-week liver injury inducement and then the ALT (Alanine Transaminase) values and the AST (Aspartate Transaminase) values were measured so as to confirm the liver injury thereof. The compound of the present invention was administered for 4 weeks, from Day 1 after the completion of the fourth-week liver injury inducement. The compound of the present invention (the compound of Example 21) was dissolved in purified water and then orally administered, using an oral sonde, at the dose of 25 mg/kg once a day for 4 weeks. Blood samples were collected on Day 0 (1 day after the completion of the fourth-week liver injury inducement) and Day 7, 14, 21 and 28 after the administration of the test compound. The collected blood was injected into a vacutainer tube containing a clot activator and then allowed to stand at room temperature for about 20 minutes so as to coagulate each blood sample. After centrifugation for 10 minutes, the resulting serums were subjected to blood-biochemical tests. In addition, at 24 hours after the last administration, an autopsy for hepatectomy and fixation was performed to prepare the tissue specimens thereof. After preparing the slides with the tissue specimens, hematoxylin and eosin (H&E) staining was performed thereon for microscopic observation of damages to liver tissue and inflammatory cell infiltrations in liver tissues. In addition, Masson's trichrome staining was also performed thereon for microscopic observation of collagen fiber depositions in liver tissues.
In addition, the results obtained by performing hematoxylin and eosin (H&E) staining and Masson's trichrome staining as described above are shown in FIGS. 3 and 4, respectively. From the results of FIG. 3, the degrees of damages to liver tissue and the degrees of inflammatory cell infiltrations in liver tissues were measured. And also, from the results of FIG. 4, the degrees of collagen fiber depositions in liver tissues were measured.

[2] = test system: dimethylnitrosamine (DMN)-induced liver injury male SD rats; assay: Liver function-improving activities by oral administration in the liver injury model (1), 3 weeks; type: in vivo, rat; conditions: serum, 25 mg/kg oral once a day
Description: The compounds according to the present invention were orally administered to dimethylnitrosamine (DMN)-induced liver injury male SD rats for 3 weeks, so as to evaluate liver function-improving activities. Specifically, 7-week-old male SD rats (Orient Bio, Korea) were accommodated to the laboratory environment at room temperature for 7 days. General symptoms were observed and then only healthy animals were used for the experiment. The rats were divided into 9 groups (n=5 for each group), the normal control group, the group to which only DMN is administered, and the groups to which both the compound of the present invention (the compounds of Example 2, 5, 6, 9, 10, 20 or 21) and DMN are administered. DMN was dissolved in purified water and then administered intraperitoneally at the dose of 10 mg/kg for 3 consecutive weeks (3 times per week, for 4 weeks). Blood samples were collected on Day 3 after the completion of the first-week liver injury inducement and then the ALT (Alanine Transaminase) values and the AST (Aspartate Transaminase) values were measured so as to confirm the liver injury thereof. The compounds of the present invention were administered for 3 weeks, i.e., from Day 4 after the completion of the first-week liver injury inducement to the DMN-administering period. The seven compounds of the present invention were dissolved in purified water or corn oil and then orally administered, using an oral sonde, at the dose of 25 mg/kg once a day for 3 weeks. Blood samples were collected on Day 0 (3 days after the completion of the first-week liver injury inducement) and Day 7, 14 and 21 after the administration of the test compounds. The collected blood was injected into a vacutainer tube containing a clot activator and then allowed to stand at room temperature for about 20 minutes so as to coagulate each blood sample. After centrifugation for 10 minutes, the resulting serums were subjected to blood-biochemical tests.

[3] = 3 weeks after the administration
[4] = 4 weeks after the administration
[5] = liver tissue, H&E staining, after 4 weeks 25 mg/kg oral, hydrochloride
[6] = 0 week (Day 0, after 4 weeks DMN), 25 mg/kg oral once a day
[7] = 1 week, 25 mg/kg oral once a day after 4 weeks DMN
[8] = 2 weeks, 25 mg/kg oral once a day after 4 weeks DMN
[9] = 3 weeks, 25 mg/kg oral once a day after 4 weeks DMN
[10] = 4 weeks, 25 mg/kg oral once a day after 4 weeks DMN
[11] = 0 week (Day 0, before administration of test compound)

CCN(CC)CCOc1ccc(-c2ccc(C(=O)NCC3(N(C)C)CCOCC3)s2)cc1OC.Cl.Cl [Example 21, N-((4-(dimethylamino)tetrahydro-2H-pyran-4-yl)methyl)-5-(4-(2-diethylamino)ethoxy-3-methoxyphenyl)thiophene-2-carboxamide hydrochloride]
ALT decrease in comparison with the DMN-administered group [1, 3]: 30%
AST decrease in comparison with the DMN-administered group [1, 3]: 22%
ALT decrease in comparison with the DMN-administered group [1, 4]: 26%
AST decrease in comparison with the DMN-administered group [1, 4]: 30%
collagen fiber depositions in liver tissues reduced in comparison with the DMN-administered group ([1]; after 4 weeks): about 62%
damages to liver tissue ameliorated in comparison with the DMN-administered group ([1]; after 4 weeks): about 50%
inflammatory cell infiltrations in liver tissues ameliorated in comparison with the DMN-administered group ([1]; after 4 weeks): ~55%
Degenerative hepatocyte numbers [1, 5]: 276.0 cells/1000 cells and 276.00 ± 16.64 cells/1000 cells
Inflammatory cell numbers [1, 5]: 85.33 cells/mm^2 and 85.33 ± 8.41 cells/mm^2
Collagen fiber occupied regions ([1]; liver tissue, Masson's trichrome staining, after 4 weeks 25 mg/kg oral, hydrochloride): 10.98 %/mm^2 and 10.98 ± 1.33 %/mm^2
ALT values (average value) [1, 6]: 198.02 U/L
AST values (average value) [1, 6]: 329.92 U/L
ALT values (average value) [1, 7]: 92.71 U/L
AST values (average value) [1, 7]: 158.91 U/L
ALT values (average value) [1, 8]: 57.61 U/L
AST values (average value) [1, 8]: 107.61 U/L
ALT values (average value) [1, 9]: 44.48 U/L
AST values (average value) [1, 9]: 112.06 U/L
ALT values (average value) [1, 10]: 48.33 U/L
AST values (average value) [1, 10]: 110.45 U/L
ALT values (average value) [2, 11]: 70.98 U/L
AST values (average value) [2, 11]: 142.10 U/L
ALT values (average value) ([2]; 1 week): 98.84 U/L
AST values (average value) ([2]; 1 week): 201.30 U/L
ALT values (average value) ([2]; 2 weeks): 104.54 U/L
AST values (average value) ([2]; 2 weeks): 208.26 U/L
ALT values (average value) ([2]; 3 weeks): 101.18 U/L
AST values (average value) ([2]; 3 weeks): 195.10 U/L
